Experimental data taken from patent EP0894089B9, “NOVEL HETEROCYCLIC COMPOUNDS HAVING ANTIDIABETIC, HYPOLIPIDAEMIC, ANTIHYPERTENSIVE PROPERTIES, PROCESS FOR THEIR PREPARATION AND PHARMACEUTICAL COMPOSITIONS CONTAINING THEM” (Dr. Reddy's Laboratories Ltd., priority 1997, dated 1997).
Counter-ions that a name gives are not always drawn.

Tested on: C57BL/KsJ-db/db mice
Assay: blood sugar and triglycerides lowering activity in db/db mice (in vivo)
Details: male C57BL/KsJ-db/db mice; for Triglyceride Lowering (%) / Reduction in Blood Glucose Level (%): 30 mg / kg oral gavage daily for 6 days, one hour after administration; for Triglyceride Lowering (%): plasma triglyceride on 6th day; for Reduction in Blood Glucose Level (%): random plasma glucose on 6th day
From the text: Mutation in colonies of laboratory animals and different sensitivities to dietary regimens have made the development of animal models with non-insulin dependent diabetes associated with obesity and insulin resistance possible. Genetic models such as db/db and ob/ob (See Diabetes, (1982) 31(1) : 1- 6) in mice and fa/fa and zucker rats have been developed by the various laboratories for understanding the pathophysiology of disease and testing the efficacy of new antidiabetic compounds (Diabetes, (1983) 32: 830-838; Annu. Rep. Sankyo Res. Lab. (1994). 46 : 1-57). The homozygous animals, C57 BL/KsJ-db/db mice developed by Jackson Laboratory, US, are obese, hyperglycemic, hyperinsulinemic and insulin resistant (J. Clin. Invest., (1990) 85 : 962-967), whereas heterozygous are lean and normoglycemic. In db/db model, a mouse progressively develops insulinopenia with age, a feature commonly observed in late stages of human type II diabetes when blood sugar levels are insufficiently controlled. The state of pancreas and its course vary according to the models. Since this model resembles that of type II diabetes mellitus, the compounds of the present invention were tested for blood sugar and triglycerides lowering activities.
Male C57BL/KsJ-db/db mice of 8 to 14 weeks age, having body weight range of 35 to 60 grams, procured from the Jackson Laboraotory, USA, were used in the experiment. The mice were provided with standard feed (National Institute of Nutrition, Hyderabad, India) and acidified water, ad libitum. The animals having more than 300 mg / dl blood sugar were used for testing. The number of animals in each group was 4.
The random blood sugar and triglyceride levels were measured by collecting blood (100 µl) through orbital sinus, using heparinised capillary in tubes containing EDTA which was centrifuged to obtain plasma. The plasma glucose and triglyceride levels were measured spectrometrically, by glucose oxidase and glycerol-3-PO4 oxidase/peroxidase enzyme (Dr. Reddy's Lab. Diagnostic Division Kits, Hyderabad, India) methods respectively. On 6th day the blood samples were collected one hour after administration of test compounds / vehicle for assessing the biological activity.
Test compounds were suspended on 0.25 % carboxymethyl cellulose and administered to test group at a dose of 30 mg / kg through oral gavage daily for 6 days. The control group received vehicle (dose 10 ml / kg).
The blood sugar and triglycerides lowering activities of the test compound was calculated according to the formula: Blood sugar / triglycerides lowering activity (%) = 1 -(DT/DC)/(TC/ZC)X 100 [formula] • ZC = Zero day control group value • DC = Zero day treated group value • TC = Control group value on test day • DT = Treated group value on the test day

SMILES	Triglyceride Lowering (%)	Reduction in Blood Glucose Level (%)	reduction in random blood sugar level (100 mg / kg, daily dose, on 6th day) [%]
Cc1c(C)c2c(c(C)c1OCc1ccccc1)CCC(C)(CN1CCC[C@H]1COc1ccc(CC3SC(=O)NC3=O)cc1)O2 (stereo partly drawn) [Example 7, 5-[4-[N-(2RS)-6-Benzyloxy-2,5,7,8,-tetramethylchroman-2-ylmethyl]-(2S)-pyrrolidine-2-methoxy]phenyl methyl]thiazolidine-2,4-dione, sodium salt]	70	36	–
Cc1c(C)c2c(c(C)c1OCc1ccccc1)C(CN1CCC[C@H]1COc1ccc(C=C3SC(=O)NC3=O)cc1)C(C)(C)O2 (stereo partly drawn) [Example 13, 5-[4-[N-[3(RS)-5-Benzyloxy-2,3-dihydro-2,2,4,6,7-pentamethylbenzofuran-3-ylmethyl]-(2S)-pyrrolidine-2-methoxy]phenylmethylene]thiazolidine-2,4-dione maleate]	42	45	–
Cc1oc2c(C)c(C)c(OCc3ccccc3)c(C)c2c1CN1CCC[C@H]1COc1ccc(C=C2SC(=O)NC2=O)cc1 [Example 20, 5-[4-[N-(5-Benzyloxy-2,4,6,7-tetramethylbenzofuran-3-ylmethyl)-(2S)-pyrrolidine-2-methoxy]phenylmethylene]thiazolidine-2,4-dione]	43	16	–
Cc1c(C)c2c(c(C)c1O)CCC(C)(COc1ccc(CC3SC(=O)NC3=O)cc1)O2 (stereo not shown) [Troglitazone, reference compound]	–	–	28
